Results taken from patent US11104648B2, “Pyrazole derivative” (Zhejiang Research Institute of Chemical Industry Co., Ltd., priority 2018, dated 2021).
Read-outs that look alike come from different tables or passages of the source.

Tests used:
Type in all cases: in vivo
[1] = tested on: Eggs of Tetranychus Cinnabarinus; test: Activity assay of eggs of Tetranychus cinnabarinus (spray method, ovicidal); conditions: Tetranychus cinnabarinus; for pest or weed control at 2 µg/mL: concentration 2 mg/L
How it was run: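 Ovicidal spray test: compound dissolved in DMF, diluted with 1‰ Tween 80 (DMF ≤10%), sprayed on eggs laid during 24 h by females on broad bean leaves. Culture at 26±2° C, 70–80% RH, 16 h photoperiod; non-hatched eggs scored as dead when blank control hatched; three repeats.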

[2] = tested on: adult Tetranychus cinnabarinus; test: Activity assay of adult Tetranychus cinnabarinus (whole-plant spray on bean seedlings); conditions: 48 h; for pest or weed control at 1.25 µg/mL: concentration 1.25 mg/L
How it was run: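 Whole plants sprayed after adult mite inoculation and initial census, using compound dissolved in DMF and made up with 1‰ Tween 80 water (DMF not above 10%). Mortality derived from survivor counts at 48 h after treatment. Each treatment run in triplicate.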

[3] = tested on: Tetranychus cinnabarinus Nymphs; test: Activity assay of Tetranychus cinnabarinus nymphs (spray on broad bean leaves)
How it was run: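 Mortality, judged as no response to gentle touch, was scored 48 h after spraying Tetranychus cinnabarinus nymphs on broad bean leaves (eggs from females removed after 24 h). Test solutions: DMF-dissolved compound, ≤10% DMF, in 1‰ Tween 80; 26±2° C., 70%–80% RH, 16 h light; triplicate, blank control.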

[4] = concentration 5 mg/L, spray, non-incubated eggs counted as dead, read-out: ovicidal activity
[5] = concentration 2.5 mg/L, read-out: adult mite-killing activity
[6] = 48 h, concentration 2.5 mg/L, read-out: nymph-killing activity
[7] = spray, read-out: ovicidal activity
[8] = read-out: adult mite-killing activity
[9] = 48 h, concentration 2 mg/L, read-out: nymph-killing activity
[10] = 48 h, read-out: nymph-killing activity

| Compound | pest or weed control at 5 µg/mL [1, 4] [%] | pest or weed control at 2.5 µg/mL [2, 5] [%] | pest or weed control at 2.5 µg/mL [3, 6] [%] | further results |
| --- | --- | --- | --- | --- |
| C=CCOC(=O)OC(C)O/C(=C(/C#N)c1ccc(C(C)(C)C)cc1)c1cc(C)nn1C (stereo not drawn) [Compound 506] | ≥ 90 | ≥ 90 | ≥ 95 |  |
| CCn1nc(C)c(Cl)c1/C(OCOC(=O)C(C)C)=C(\C#N)c1ccc(C(C)(C)C)cc1 [Compound 304] | ≥ 90 | ≥ 90 | ≥ 95 |  |
| C#CCOC(=O)OC(C)O/C(=C(/C#N)c1ccc(C(C)(C)C)cc1)c1cc(C)nn1CC (stereo not drawn) [Compound 604] | ≥ 90 | ≥ 90 | ≥ 95 |  |
| CC(=O)OCO/C(=C(/C#N)c1ccc(C(C)(C)C)cc1)c1c(Cl)c(C)nn1C [Compound 76] | ≥ 90 | ≥ 90 | ≥ 95 |  |
| Cc1nn(C)c(/C(OC(C)OC(=O)C2CC2)=C(\C#N)c2ccc(C(C)(C)C)cc2)c1Cl (stereo not drawn) [Compound 109] | ≥ 90 | ≥ 90 | ≥ 95 |  |
| CCC(=O)OC(C)O/C(=C(/C#N)c1ccc(C(C)(C)C)cc1)c1c(Cl)c(C)nn1C (stereo not drawn) [Compound 102] | ≥ 90 | ≥ 90 | ≥ 95 |  |
| C=CC(=O)OC(C)O/C(=C(/C#N)c1ccc(C(C)(C)C)cc1)c1c(C)c(C)nn1C (stereo not drawn) [Compound 192] | ≥ 90 | ≥ 90 | ≥ 95 |  |
| CCC(=O)OC(C)O/C(=C(/C#N)c1ccc(C(C)(C)C)cc1)c1c(C)c(C)nn1C (stereo not drawn) [Compound 177] | ≥ 90 | ≥ 90 | ≥ 95 |  |
| CCn1nc(C)c(Cl)c1/C(OC(C)OC(=O)CSC)=C(\C#N)c1ccc(C(C)(C)C)cc1 (stereo not drawn) [Compound 335] | ≥ 90 | ≥ 90 | ≥ 95 |  |
| CCn1nc(C)c(C)c1/C(OC(C)OC(=O)OC)=C(\C#N)c1ccc(C(C)(C)C)cc1 (stereo not drawn) [Compound 963] | ≥ 90 | ≥ 90 | ≥ 95 | pest or weed control at 2 µg/mL [1, 7]: ≥ 90%; pest or weed control at 1.25 µg/mL [2, 8]: ≥ 90%; pest or weed control at 2 µg/mL [3, 9]: ≥ 90% |
| CCCC(=O)OCO/C(=C(/C#N)c1ccc(C(C)(C)C)cc1)c1cc(C)nn1C [Compound 3] | ≥ 90 | ≥ 90 | ≥ 95 |  |
| COCC(=O)OC(C)O/C(=C(/C#N)c1ccc(C(C)(C)C)cc1)c1cc(C)nn1C (stereo not drawn) [Compound 33] | ≥ 90 | ≥ 90 | ≥ 95 |  |
| CC(=O)OCO/C(=C(/C#N)c1ccc(C(C)(C)C)cc1)c1c(C)c(C)nn1C [Compound 151] | ≥ 90 | ≥ 90 | ≥ 95 |  |
| Cc1nn(C)c(/C(OCOC(=O)C(C)C)=C(\C#N)c2ccc(C(C)(C)C)cc2)c1Cl [Compound 79] | ≥ 90 | ≥ 90 | ≥ 95 |  |
| CCn1nc(C)c(Cl)c1/C(OCOC(=O)Cc1ccccc1)=C(\C#N)c1ccc(C(C)(C)C)cc1 [Compound 315] | ≥ 90 | ≥ 90 |  | pest or weed control at 2.5 µg/mL ([3]; concentration 2.5 mg/L, 48 h, read-out: nymph-killing activity): ≥ 95% |
| Cc1cc(/C(OCOC(=O)OC(C)C)=C(\C#N)c2ccc(C(C)(C)C)cc2)n(C)n1 [Compound 454] | ≥ 90 | ≥ 90 | ≥ 95 |  |
| CSCCOC(=O)OC(C)O/C(=C(/C#N)c1ccc(C(C)(C)C)cc1)c1cc(C)nn1C (stereo not drawn) [Compound 503] | ≥ 90 | ≥ 90 | ≥ 95 |  |
| CCn1nc(C)cc1/C(OCOC(=O)OCC(C)C)=C(\C#N)c1ccc(C(C)(C)C)cc1 [Compound 553] | ≥ 90 | ≥ 90 | ≥ 95 | pest or weed control at 2 µg/mL [1, 7]: ≥ 90%; pest or weed control at 1.25 µg/mL [2, 8]: ≥ 90%; pest or weed control at 2 µg/mL [3, 9]: ≥ 90% |
| CSCC(=O)OC(C)O/C(=C(/C#N)c1ccc(C(C)(C)C)cc1)c1c(Cl)c(C)nn1C (stereo not drawn) [Compound 110] | ≥ 90 | ≥ 90 | ≥ 95 |  |
| CCn1nc(C)c(Cl)c1/C(OC(C)OC(=O)COC)=C(\C#N)c1ccc(C(C)(C)C)cc1 (stereo not drawn) [Compound 333] | ≥ 90 | ≥ 90 | ≥ 95 |  |

| Compound | pest or weed control at 5 µg/mL [1, 4] [%] | pest or weed control at 2.5 µg/mL [2, 5] [%] | pest or weed control at 2.5 µg/mL [3, 6] [%] | further results |
| --- | --- | --- | --- | --- |
| Cc1cc(/C(OCOC(=O)C2CCCCC2)=C(\C#N)c2ccc(C(C)(C)C)cc2)n(C)n1 [Compound 11] | ≥ 90 | ≥ 90 | ≥ 95 |  |
| CCn1nc(C)cc1/C(OCOC(=O)CF)=C(\C#N)c1ccc(C(C)(C)C)cc1 [Compound 237] |  |  |  | pest or weed control at 5 µg/mL ([1]; read-out: ovicidal activity): ≥ 90%; pest or weed control at 2.5 µg/mL [2, 8]: ≥ 90%; pest or weed control at 2.5 µg/mL [3, 10]: ≥ 95% |
| CSCC(=O)OC(C)O/C(=C(/C#N)c1ccc(C(C)(C)C)cc1)c1c(C)c(C)nn1C (stereo not drawn) [Compound 185] | ≥ 90 | ≥ 90 | ≥ 95 |  |
| Cc1cc(/C(OC(C)OC(=O)OC(C)C)=C(\C#N)c2ccc(C(C)(C)C)cc2)n(C)n1 (stereo not drawn) [Compound 486] | ≥ 90 | ≥ 90 | ≥ 95 |  |
| CCn1nc(C)c(C)c1/C(OCOC(=O)CSC)=C(\C#N)c1ccc(C(C)(C)C)cc1 [Compound 385] | ≥ 90 | ≥ 90 | ≥ 95 |  |
| CCn1nc(C)cc1/C(OCOC(=O)C1CC1)=C(\C#N)c1ccc(C(C)(C)C)cc1 [Compound 234] | ≥ 90 | ≥ 90 | ≥ 95 | pest or weed control at 2 µg/mL [1, 7]: ≥ 90%; pest or weed control at 2 µg/mL ([1]; eggs, parallel determination, read-out: Death rate (%)): 100%; pest or weed control at 1.25 µg/mL ([2]; adult mites, parallel determination, read-out: Death rate (%)): 100%; pest or weed control at 1.25 µg/mL [2, 8]: ≥ 90%; pest or weed control at 2 µg/mL [3, 9]: ≥ 90%; pest or weed control at 0.5 µg/mL ([3]; 48 h, nymphs, concentration 0.5 mg/L, parallel determination, read-out: Death rate (%)): 96% |
| COCC(=O)OCO/C(=C(/C#N)c1ccc(C(C)(C)C)cc1)c1c(C)c(C)nn1C [Compound 158] | ≥ 90 | ≥ 90 | ≥ 95 |  |
| CCn1nc(C)c(Cl)c1/C(OCOC(=O)CSC)=C(\C#N)c1ccc(C(C)(C)C)cc1 [Compound 310] | ≥ 90 | ≥ 90 | ≥ 95 |  |
| C=CC(=O)OC(C)O/C(=C(/C#N)c1ccc(C(C)(C)C)cc1)c1cc(C)nn1C (stereo not drawn) [Compound 42] | ≥ 90 | ≥ 90 | ≥ 95 |  |
| CCn1nc(C)cc1/C(OCOC(=O)C(F)(F)F)=C(\C#N)c1ccc(C(C)(C)C)cc1 [Compound 238] | ≥ 90 | ≥ 90 | ≥ 95 |  |
| CCn1nc(C)cc1/C(OCOC(=O)OCC(F)(F)F)=C(\C#N)c1ccc(C(C)(C)C)cc1 [Compound 563] | ≥ 90 | ≥ 90 | ≥ 95 |  |
| Cc1nn(C)c(/C(OC(C)OC(=O)C(C)(C)C)=C(\C#N)c2ccc(C(C)(C)C)cc2)c1C (stereo not drawn) [Compound 180] | ≥ 90 | ≥ 90 | ≥ 95 |  |
| Cc1cc(/C(OCOC(=O)C(C)C)=C(\C#N)c2ccc(C(C)(C)C)cc2)n(C)n1 [Compound 4] | ≥ 90 | ≥ 90 | ≥ 95 |  |
| CCn1nc(C)c(Cl)c1/C(OCOC(=O)C(F)(F)F)=C(\C#N)c1ccc(C(C)(C)C)cc1 [Compound 313] | ≥ 90 | ≥ 90 | ≥ 95 |  |
| Cc1cc(/C(OCOC(=O)CF)=C(\C#N)c2ccc(C(C)(C)C)cc2)n(C)n1 [Compound 12] |  |  |  | pest or weed control at 5 µg/mL ([1]; read-out: ovicidal activity): ≥ 90%; pest or weed control at 2.5 µg/mL [2, 8]: ≥ 90%; pest or weed control at 2.5 µg/mL [3, 10]: ≥ 95% |
| CCn1nc(C)cc1/C(OC(C)OC(=O)CF)=C(\C#N)c1ccc(C(C)(C)C)cc1 (stereo not drawn) [Compound 262] |  |  |  | pest or weed control at 5 µg/mL ([1]; read-out: ovicidal activity): ≥ 90%; pest or weed control at 2.5 µg/mL [2, 8]: ≥ 90%; pest or weed control at 2.5 µg/mL [3, 10]: ≥ 95% |
| CCCC(=O)OC(C)O/C(=C(/C#N)c1ccc(C(C)(C)C)cc1)c1cc(C)nn1C (stereo not drawn) [Compound 28] | ≥ 90 | ≥ 90 | ≥ 95 |  |
| CC(=O)OC(C)O/C(=C(/C#N)c1ccc(C(C)(C)C)cc1)c1cc(C)nn1C (stereo not drawn) [Compound 26] | ≥ 90 | ≥ 90 | ≥ 95 |  |
| Cc1nn(C)c(/C(OCOC(=O)CF)=C(\C#N)c2ccc(C(C)(C)C)cc2)c1C [Compound 162] |  |  |  | pest or weed control at 5 µg/mL ([1]; read-out: ovicidal activity): ≥ 90%; pest or weed control at 2.5 µg/mL [2, 8]: ≥ 90%; pest or weed control at 2.5 µg/mL [3, 10]: ≥ 95% |
